Measurements: paper PMC7845594, “Novel Immune Modulators Enhance Caenorhabditis elegans Resistance to Multiple Pathogens” (mSphere, 2021)
“Also recorded” adds a separate entry of the source.

Tests used:
RWPE-1 cells = assay: MTT cell viability assay; conditions: RWPE-1, 10, 50, or 100 µM, 24 h; cell death greater than 30% = toxicity
Method: (B) 1.5 × 10^4 RWPE-1 immortalized prostate cells were seeded into each well of a 96-well plate. […] The viability was normalized to a DMSO solvent control. Six wells were used per condition, and an average of three biological replicates is shown.
We also tested compound toxicity in RWPE-1 cells, a well-established, noncancerous, immortalized prostate epithelial cell line available in the lab. Cells were seeded in 96-well plates and allowed to attach before media containing various concentrations of one of the compounds (or DMSO as a control) were added. […] Cell death greater than 30% was considered evidence of toxicity (Fig. 3B).
Then, 100 µl of DMSO was added, and the absorbance at 590 nm measured. MTT assays were performed in triplicate.

[1] = tested on: C. elegans exposed to P. aeruginosa strain PA14; assay: P. aeruginosa slow-killing assay (agar); type: in vivo, Caenorhabditis elegans; conditions: for Rescue in slow killing on disruption of the PMK-1 MAPK pathway: pmk-1 or atf-7 RNAi; for Survival in slow-killing assay vs DMSO: wild-type young adult worms
Excerpt: The finding that each of the compounds activated PMK-1/p38 MAPK targets was of interest, as this pathway is associated with enhanced immunity against multiple bacterial pathogens in agar-based C. elegans assays. Therefore, we tested whether these compounds could promote survival in an agar-based, high-colonization pathogenesis model known as slow killing. Loss of PMK-1 activity substantially compromises survival in the slow-killing assay ([16], [47]). Wild-type, young adult worms were exposed to P. aeruginosa strain PA14 on agar plates impregnated with each of the five compounds. […] To see whether this depended upon the PMK-1 pathway, LK32, LK38, and LK56 were retested in worms where RNAi was used to knock down pmk-1/MAPK or atf-7/ATF7 (a key transcription factor whose activity is modulated by PMK-1 [63, 64]) (Fig. 9; see Table S2 in the supplemental material for TD50 and overall statistical significance).
FIG 8 Four LK molecules extend C. elegans life span in the slow-killing assay. […] The data shown are from a representative replicate. Each of the three biological replicates was comprised of three plates per condition, with each plate containing ∼60 worms. Statistical significance was calculated using a log-rank test. Worms that left the surface of the plate were excluded from analysis (see Table S2 in the supplemental material for TD50 and exact P values).
FIG 9 Rescue in slow killing by a subset of LK compounds depends upon the PMK-1/p38 MAPK pathway. Wild-type L4 worms were reared on RNAi targeting pmk-1/p38 MAPK, atf-7/ATF-7, or empty vector and placed onto slow-killing plates containing DMSO or LK32 (A and B), LK38 (C and D), or LK56 (E and F) at 50 µM. Starting at 24 h, worms were scored every 12 h for survival until all worms perished. Each of the three biological replicates was comprised of three plates, each plate contained approximately 50 to 70 worms. Statistical significance was calculated using log-rank test (see Table S2 in the supplemental material for TD50 and exact P values). For vector RNAi, DMSO versus compound, P < 0.001 for LK38, LK56, and LK32.
Supplementary file : FIG S5 NSY-1 and SEK-1, upstream members of the PMK-1/p38 MAPK pathway, are required for LK38-mediated rescue. Young adult wild-type, nsy-1/MAP3K15(ag3), or sek-1/MAP2K6(km-4) mutants were exposed to P. aeruginosa in the slow-killing assay in the presence of DMSO or LK38. Data for each condition at each time point represent the average value for three plates from one representative replicate (of three replicates total). Each plate contained ∼60 worms. P values were calculated using a log-rank test (see Table S2 in the supplemental material for the TD50 and exact P values). For wild-type DMSO versus LK38 P < 0.001. No statistically significant difference was measured between LK38 and DMSO for either mutant. Download FIG S5, PDF file, 0.1 MB.
Slow-killing (SK) plates were made as previously reported ([92]). Compounds were added to molten SK agar before pouring plates. After solidifying, 40 µl of PA14 overnight culture was spread on plates before incubating plates at 37°C for 24 h, followed by 25°C for 24 h. 5-fluoro-2′-deoxyuridine (FUDR) (0.1 mg/ml) was dropped on plates 30 min prior to picking worms, to ensure nematode sterility. Fifty to seventy L4-stage, wild-type worms were picked onto plates and scored every 12 h after the first 24 h, until all worms were dead. Three biological replicates were performed.

PMK-1/p38 MAPK pathway = assay: irg-5p::GFP reporter; type: in vivo, Caenorhabditis elegans; conditions: 25, 50, or 100 μM, 24 h, no pathogen
Excerpt: To test activation of these pathways, worms carrying GFP-based reporters for the SKN-1/Nrf, PMK-1/p38 MAPK, and DAF-16/FOXO pathways (gst-4p::GFP, irg-5p::GFP, and DAF-16::GFP, respectively) were exposed to each compound in S Basal medium in the absence of the pathogen.
FIG 4 A subset of LK molecules activates reporters for the SKN-1/Nrf2 or PMK-1/p38 MAPK pathways. […] Also present are DMSO and ethanol negative controls for LK compounds and juglone, respectively. The fluorescence intensity was normalized to that of DMSO. (B) Worms carrying an irg-5p::GFP reporter for PMK-1/p38 MAPK activity were incubated at 25, 50, or 100 μM in 1% DMSO. Positive and negative controls consisted of 100 μM RPW-24 in 1% DMSO and 1% DMSO alone. Fluorescence was measured at 24 h. […] P values were calculated using Student’s t test. […]
Worms were washed three times prior to incubation with compounds or DMSO control and diluted in S Basal medium supplemented with E. coli OP50 (OD600 = 0.08) as a food source. The fluorescence fold increase for gst-4p::GPF was taken as the fluorescence of each well and was normalized to the well’s fluorescence at 0 h. irg-5p::GFP, hsp-16.1p::GFP, rpt-6p::GFP, and hsp-4::GFP fluorescence was quantified as the fluorescence/worm area. […] For quantification of nuclear localization of GFP fusion reporters, worms were scored as either localization positive or localization negative. […]

[2] = vector RNAi, 50 µM, Fig 9 panels A-B, C, E
[3] = vector RNAi, 50 µM, Fig 9 panels D, F
[4] = wild-type worms, 50 µM, Fig 8 (DMSO 58.9)

Structure (SMILES)	Toxicity in mammalian cells (MTT viability) (RWPE-1 cells)	TD50, slow killing ([1]; atf-7 RNAi, 50 µM, Fig 9)	TD50, slow killing ([1]; pmk-1 RNAi, 50 µM, Fig 9)	Rescue in slow killing on disruption of the PMK-1 MAPK pathway ([1]; 50 µM)	TD50, slow killing [1, 2]	Survival in slow-killing assay vs DMSO ([1]; 50 µM)	irg-5p::GFP fluorescence (PMK-1/p38 MAPK activation) (PMK-1/p38 MAPK pathway)	TD50, slow killing [1, 3]	TD50, slow killing [1, 4]	TD50, slow killing ([1]; N2 wild-type, Fig S5)	TD50, slow killing ([1]; nsy-1(ag3) mutant, Fig S5)	TD50, slow killing ([1]; sek-1(km4) mutant, Fig S5)
COC(=O)/C=C/C(=O)Nc1ccccc1 [LK32]	poorly tolerated; also recorded: substantial toxicity	46.2 h	45.6 h	retained at least partial ability to rescue	59.1 h	improved survival	–	–	–	–	–	–
O=c1cc(CNc2ccc(Br)cc2)nc2sccn12 [LK56]	–	38.5 h	38.0 h	retained at least partial ability to rescue	59.9 h	improved survival	modest increase	56.1 h	60.5 h	–	–	–
CNC(=O)Oc1c(Br)cc2sc(=O)oc2c1Br [LK34]	some toxicity	–	–	–	–	improved survival	–	–	–	–	–	–
CN(C)/N=N/c1ccc(-c2cn(Cc3ccccc3)cn2)cc1 [LK38]	–	36.8 h	35.6 h	completely dependent upon the PMK-1/MAPK pathways	65.2 h	improved survival	modest increase	53.5 h	59.5 h	59.5 h	26.5 h	27.6 h
CCN(CC)/N=N/c1ccc(C(=O)O)cc1 [LK35]	–	–	–	–	–	not significant	–	–	57.5 h	–	–	–
